Measurements taken from patent publication US20100323975A1, “THERAPEUTIC AGENT FOR CEREBRAL ISCHEMIC INJURY” (OTSUKA PHARMACEUTICAL FACTORY, INC., priority 2007, published 2010).
“Also recorded” adds a separate entry of the source. Peptide text beside a SMILES is read from it.

How the values were obtained:
Wistar male rats = assay: Identification of side effects after intravenous administration (Test Example 2); details: for Cessation of breathing, number of cases: 4 rats per group
Protocol: (§1) 7- to 9-week-old Wistar male rats were divided into the following 8 administration groups. The number of rats in each group was set at 4. […]
L-histidine hydrochloride was dissolved in water for injection purpose, and the obtained solution was then adjusted to pH 6.0 with a sodium hydroxide aqueous solution. The obtained injection solution (L-histidine concentration: 10% (W/V)) was administered into the caudal vein of each rat at a rate of 60 mL/kg/hr for 10 minutes.
(§2) L-histidine was added to water for injection purpose, and acetic acid was further added thereto, so as to dissolve L-histidine in the solution. The obtained solution was adjusted to pH 6.0 with a sodium hydroxide aqueous solution. The obtained injection solution (L-histidine concentration: 10% (W/V)) was administered into the caudal vein of each rat at a rate of 60 mL/kg/hr for 10 minutes.
as §2, with “citric” for “acetic”
β-alanyl-L-histidine was added to water for injection purpose, and the obtained solution was then adjusted to pH 7 with hydrochloric acid. The obtained injection solution (L-histidine concentration: 10% (W/V)) was administered into the caudal vein of each rat at a rate of 60 mL/kg/hr for 10 minutes. […]
(§3) After administration of the agent, blood was collected from each rat at regular time intervals, and the concentration of L-histidine (monomer) in blood was then measured using a high speed amino acid analyzer L-8800A (manufactured by Hitachi High-Technologies Corporation). […] In addition, the body temperature, blood pressure, and cardiac rate of each test animal were measured during the period from before administration of the agent until after the administration of the agent, and at the same time, the appearance of each test animal was observed, so as to examine the presence or absence of side effects caused by administration of the agent. The L-histidine concentration in blood was measured 15 minutes after the administration of the agent, and the presence or absence of side effects caused by such administration of the agent was examined.

[1] = L-histidine concentration in blood after intravenous administration (Test Example 2)
Protocol: as §1
The therapeutic agent for cerebral ischemic injury obtained in Production Example 2 was diluted by a factor of 2, and the thus diluted solution was administered into the caudal vein of each rat at a rate of 60 mL/kg/hr for 10 minutes. […]
as §2
as §2, with “citric” for “acetic”, “minutes. […]” for “minutes.”
as §3

[2] = Solubility in water at 25° C.; format: physicochemical
[3] = tested on: model of middle cerebral artery occlusion and subsequent reperfusion (cerebral ischemic injury); assay: Infarction rate in model of middle cerebral artery occlusion and subsequent reperfusion (Test Example 1); format: in vivo, Wistar male rats; details: for Infarction rate (mean value): 90 min occlusion, day after administration, control 49%
Excerpt: Approximately 9-week-old Wistar male rats were used. The method of Koizumi et al. (Nou-socchu (Cerebral Apoplexy), Vol. 8, pp. 1-8, 1986) was applied to the rats under halothane anesthesia, so as to produce models of middle cerebral artery occlusion and subsequent reperfusion. Specifically, each rat was fixed under natural aspiration conditions under anesthesia with gas (initial anesthesia: performed in room air containing 3% halothane; continuous anesthesia: performed in room air containing 1% halothane), and the neck of the rat was then subjected to median incision. Subsequently, the left common carotid and external carotid artery was exfoliated from surrounding connective tissues, and it was then ligated with a ligature. After that, the internal carotid artery was exfoliated from surrounding connective tissues, and it was then ligated with a ligature. Further, using scissors, a hole was made on a site close to the branch point between the left external carotid artery and the internal carotid artery, and a silicon-coated portion of a nylon plug was then inserted into the internal carotid artery at a depth of 15 to 16 mm. Thereby, the tip of the inserted nylon plug exceeded the middle cerebral artery portion and reached the anterior cerebral artery, so that the inlet of the middle cerebral artery was occluded with the silicon-coated portion of the plug. […]
On the day after the administration of the agent, a test animal was anesthetized with ether, and the brain was then excised. […] A slice of brain section was placed, with a surface to be measured down, into each well of a 12-well plate, which had been filled with a 2% TTC solution prepared by dissolving 2,3,5-triphenyltetrazolium chloride (TTC) in a phosphate buffered saline. […] Thus, the area of an infarct on the measurement surface of each brain section (the site in which brain tissue was considered to be necrosed) was measured, and the obtained value was then multiplied by the thickness of the brain section, so as to obtain the volume of an infarct in each brain section. […]

[4] = Time course of L-histidine concentration in blood after administration of different dipeptides (Test Example 4); format: in vivo, Wister male rats
Protocol: 7- to 8-week-old Wister male rats were divided into the following 3 administration groups.
(§4) 1.00 g of L-alanyl-L-histidine (manufactured by Bachem) was dissolved in water for injection purpose to prepare 13.70 mL (total amount) of solution. This solution was subjected to sterilization filtration, and it was then poured into syringes (10 mL each per syringe), so as to produce a therapeutic agent for cerebral ischemic injury having a dosage form as an injection. The concentration of L-alanyl-L-histidine in this therapeutic agent for cerebral ischemic injury was 0.32 mol/L (L-histidine concentration: 5% (W/V)).
as §4, with “L-histidyl-L-glycine” for “L-alanyl-L-histidine”, “14.60” for “13.70”
as §4, with “L-histidyl-L-glutamic acid” for “L-alanyl-L-histidine”, “10.90” for “13.70”

[5] = male, Wistar, rat, in vivo, 15 min
[6] = male, Wistar, rat, in vivo, 0 min
[7] = male, Wistar, rat, in vivo, 30 min
[8] = male, Wistar, rat, in vivo, 60 min
[9] = male, Wistar, rat, in vivo, 120 min
[10] = male, Wistar, rat, in vivo, -10 min
[11] = 5th administration group: dissolved with acetic acid, pH 6.0, L-histidine 10% (W/V), caudal vein 60 mL/kg/hr for 10 minutes
[12] = 6th administration group: dissolved with citric acid, pH 6.0, L-histidine 10% (W/V), caudal vein 60 mL/kg/hr for 10 minutes

SMILES: NCCC(=O)N[C@@H](Cc1cnc[nH]1)C(=O)O [β-alanyl-L-histidine]
- Side effects (Wistar male rats; rat, in vivo): Cessation of breathing
- L-histidine concentration in blood (mean value) [1, 5]: 0.30 mM

SMILES: C[C@H](N)C(=O)N[C@@H](Cc1c[nH]cn1)C(=O)O [L-alanyl-L-histidine] (H-Ala-His-OH)
- Side effects (Wistar male rats; rat, in vivo): None
- solubility [2]: ≥ 3500 mM
- Cerebral ischemic injury during cerebral ischemia-reperfusion compared with control group and comparison group ([3]; Experiment group, Production Example 1 injection): remarkably suppressed
- Infarction rate (mean value) ([3]; Experiment group: Production Example 1 injection (1.29 mol/L), caudal vein 60 mL/kg/hr for 10 minutes, immediately after and 6 hours after reperfusion): 20%
- Factor of increase of L-histidine concentration in blood when the concentration administered was increased by a factor of 2 [1, 5]: 3-3.5
- L-histidine concentration in blood [4, 6]: 7588.27 nmol/mL
- L-histidine concentration in blood immediately after completion of administration, relative to second administration group (L-histidyl-L-glycine) [4, 6]: approximately 2 times
- L-histidine concentration in blood immediately after completion of administration, relative to third administration group (L-histidyl-L-glutamic acid) [4, 6]: approximately 5 times
- L-histidine concentration in blood [4, 5]: 3802.80 nmol/mL
- L-histidine concentration in blood [4, 7]: 2198.93 nmol/mL
- L-histidine concentration in blood [4, 8]: 770.17 nmol/mL
- L-histidine concentration in blood [4, 9]: 268.77 nmol/mL
- L-histidine concentration in blood [4, 10]: 76.67 nmol/mL

SMILES: CC(=O)N[C@@H](Cc1c[nH]cn1)C(=O)O [N-acetyl-L-histidine]
- Side effects (Wistar male rats; rat, in vivo, pH 7): None
- L-histidine concentration in blood (mean value) ([1]; male, Wistar, rat, in vivo, 15 min, pH 7): 0.25 mM

SMILES: CC1=NN(c2ccccc2)C(=O)C1 [Edaravone, 3-methyl-1-phenyl-2-pyrazoline-5-one]
- Infarction rate (mean value) ([3]; Comparison group: bolus injection 3 mg/kg immediately after and 30 minutes after reperfusion): 38%

SMILES: N[C@@H](Cc1cnc[nH]1)C(=O)NCC(=O)O [L-histidyl-L-glycine] (H-His-Gly-OH)
- L-histidine concentration in blood ([4]; 0 min after administration, 0.32 mol/L, caudal vein 60 mL/kg/hr for 10 minutes): 3995.57 nmol/mL
- L-histidine concentration in blood ([4]; 15 min after administration, 0.32 mol/L, caudal vein 60 mL/kg/hr for 10 minutes): 3798.87 nmol/mL
- L-histidine concentration in blood ([4]; 30 min after administration, 0.32 mol/L, caudal vein 60 mL/kg/hr for 10 minutes): 2019.47 nmol/mL
- L-histidine concentration in blood ([4]; 60 min after administration, 0.32 mol/L, caudal vein 60 mL/kg/hr for 10 minutes): 833.93 nmol/mL
- L-histidine concentration in blood ([4]; 120 min after administration, 0.32 mol/L, caudal vein 60 mL/kg/hr for 10 minutes): 244.03 nmol/mL
- L-histidine concentration in blood ([4]; −10 min (before administration), 0.32 mol/L, caudal vein 60 mL/kg/hr for 10 minutes): 74.73 nmol/mL

SMILES: Cl.N[C@@H](Cc1c[nH]cn1)C(=O)O [L-histidine hydrochloride]
- Side effects (Wistar male rats; 4th (pH 6.0) / 7th (pH 7) administration group: L-histidine concentration 10% (W/V), caudal vein 60 mL/kg/hr for 10 minutes, hydrochloride): Decrease in blood pressure; also recorded: Cessation of breathing
- Cessation of breathing, number of cases (Wistar male rats; 4th group: during administration of agent, 7th group: immediately after administration, L-histidine 10% (W/V)): agent in 2 cases

SMILES: N[C@@H](Cc1c[nH]cn1)C(=O)O [L-histidine]
- Side effects (Wistar male rats; [11]): Decrease in blood pressure; also recorded: Cessation of breathing
- Cessation of breathing, number of cases (Wistar male rats; 5th group (acetic acid, pH 6.0, 10% (W/V)): immediately after administration of agent): administration of agent in 4 cases
- Side effects (Wistar male rats; [12]): Decrease in blood pressure; also recorded: Cessation of breathing
- Cessation of breathing, number of cases (Wistar male rats; 6th group (citric acid, pH 6.0, 10% (W/V)): during administration of agent): agent in 4 cases
- L-histidine concentration in blood (mean value) [1, 11]: Not be measurable
- L-histidine concentration in blood (mean value) [1, 12]: Not be measurable

SMILES: N[C@@H](Cc1c[nH]cn1)C(=O)N[C@@H](CCC(=O)O)C(=O)O [L-histidyl-L-glutamic acid] (H-His-Glu-OH)
- L-histidine concentration in blood [4, 6]: 1546.15 nmol/mL
- L-histidine concentration in blood [4, 5]: 2090.10 nmol/mL
- L-histidine concentration in blood [4, 7]: 1827.15 nmol/mL
- L-histidine concentration in blood [4, 8]: 926.80 nmol/mL
- L-histidine concentration in blood [4, 9]: 233.20 nmol/mL
- L-histidine concentration in blood [4, 10]: 78.40 nmol/mL
